These are literature values, as cited in patent publication US6303615A, “2,3 disubstituded-4(3H)-quinazolinones” (Pfizer Inc, priority 1999, dated 2001).

Structures are written as SMILES.

For series [1] the following is noted: reported in literature (LaPeillet et al.).
The conditions of series [2]: reported in literature (Sheardown et al.; Buchan et al.; LePeillet et al.).

As for `CC1=NN=C(c2ccc(N)cc2)c2cc3c(cc2C1)OCO3` [GKYI 52466], in series [1], the “neuroprotection in rat global ischemia models” value was “effective neuroprotective agent”. As for `NS(=O)(=O)c1cccc2c1c([N+](=O)[O-])cc1[nH]c(=O)c(=O)[nH]c12` [NBQX, 2,3-dihydroxy-6-nitro-7-sulfamoylbenzo[f-]quinoxaline], the “preventing global and focal ischemic damage” value in series [2] was “effective”.
